According to patent US9546129B2, “DTPA prodrugs, compositions thereof, and methods of using the same” (priority 2012, dated 2017):
“And” between values parts separate entries of the source, which are not always exact repeats. Identical values can stand only once.

Columns and labels:
^241Am contaminated rats = test: C2E2 single dose ^241Am decorporation in rats (IM contamination); format: in vivo, Sprague Dawley rat; details: for Cage Wash ^241Am / Feces ^241Am / Liver burden / Total Decorporation / Urine ^241Am: single dose 24 h after IM ^241Am, 7 days
Method: This study was to assess the efficacy of a single oral gavage dose of C2E2 in ^241Am contaminated rats. A 200 μL aliquot was withdrawn from a stock solution of ^241Am nitrate (0.1 mCi in 5 mL 1 M HNO3), evaporated to dryness, dissolved in concentrated HNO3 (15 M, 5 mL) then evaporated to dryness and dissolved in dilute HNO3 (0.1 M, 8 mL) to form the injection solution. Groups of 4 female Sprague-Dawley rats were contaminated with 250 nCi of ^241Am nitrate by IM injection ([…]) then were administered single doses of C2E2 by gavage at 200, 600, or 1000 mg/kg under ad lib feeding conditions utilizing a 10% w/w solution in sterile water (dose volumes were 2, 6, and 10 mL/kg, for the 200, 600, and 1000 mg/kg doses, respectively). For the fasted component of the study, the animals were fasted 24 hours before treatment then for 2 hours post drug administration. Control groups with ad lib access to food and water were either untreated or administered an IV dose of the calcium salt of DTPA (Ca-DTPA) at 14 mg/kg (target dose volume of 0.7 mL/kg and concentration of 20 mg/mL). Treatment was administered 1 day after contamination. All animals were euthanized 7 days after contamination and the following tissues were collected: liver, both kidneys, both femurs as well as the ipsilateral and the contralateral hind leg muscle tissue and the pelt from the injection site. Urine and feces were collected from the time of contamination through euthanasia. Cage washings were also collected at the end of the study and considered part of total urine collection. Two aliquots (100 μL) of the injection solution were removed and ^241Am gamma activity was determined using radiomatic detection. The average of these standards is the injected dose used for all animals. All tissues and samples were counted in a similar manner. Americium content was expressed as a percentage of the injected dose. Overall recovery of radioactivity across all groups in this study was approximately 90%. […] The primary route by which both DTPA and C2E2 enhanced elimination of ^241Am occurred was by urinary clearance. […] Fecal clearance of ^241Am was not altered by feeding status, an observation that is consistent with the similar liver burden between the two groups at the end of the study. […] As with DTPA, enhanced decorporation by C2E2 occurred through enhanced urinary clearance.
Male and female Sprague Dawley rats (n=4/gender/dose) were administered single oral doses of diethylenetriaminepentaacetic acid diethyl ester (C2E2) by gavage 24 hours after intramuscular contamination with ^241Am(NO3)3 (250 nCi) under ad libitum and fasted conditions. Animals received single oral nominal doses of 200, 600, or 1000 mg/kg C2E2. Untreated animals and animals treated with an intravenous dose of Ca-DTPA ([…]) 24 hours after contamination served as controls; only ad libitum conditions were used for control animals. Total radionuclide decorporation and radionuclide tissue burden were evaluated seven days after contamination.
Male and female Sprague Dawley rats were contaminated with ^241Am(NO3)3 (0.25 μCi) by intramuscular injection (0.1 mL, 0.1 M HNO3) into the right hind leg, under isoflurane anesthesia. Immediately after injection, body weights were recorded (Day 0 weight) and animals were placed in individual metabolic cages.
Approximately eight hours after contamination—and 16 hours before test article administration—rats assigned to the Fasted groups had access to food restricted by removing the food chamber from their metabolic cages and collecting all loose chow from their housing chambers. Food chambers were replaced 1 hour after oral gavage treatment, restoring access to food. At all other times all animals had ad libitum access to food.
Male and female Sprague-Dawley rats assigned to test groups each received a single oral gavage dose of 0, 200, 600, or 1000 mg/kg of C2E2 utilizing a 10% w/w solution in water 24 hours after contamination. […]

[1] = test system: ^241Am contaminated dogs (nose-only inhalation); test: Efficacy study in dogs, preliminary ^241Am recovery in urine and liver; format: in vivo, dog; details: for Total Recovered Activity, Liver, Treatment Mean / Total Recovered Activity, Urine, Treatment Mean: dogs; for Total Recovered Activity, Liver / Total Recovered Activity, Urine: individual animals
Method: Dogs were administered ^241Am (target of 3 μCi/animal) by nose-only inhalation on Day 0. […] Group 1 was a control and was used for determining the unperturbed biokinetics. Fourteen (14) days post C2E2 administration, the animals were sedated and euthanized. Preliminary urinary excretion and liver retention data were obtained (Table 8).

[2] = C2E2 200 mg/kg gavage, ad lib, female rats
[3] = C2E2 200 mg/kg gavage, fasted, female rats
[4] = C2E2 600 mg/kg gavage, ad lib, female rats
[5] = C2E2 600 mg/kg gavage, fasted, female rats
[6] = C2E2 1000 mg/kg gavage, ad lib, female rats
[7] = C2E2 1000 mg/kg gavage, fasted, female rats
[8] = C2E2 100 mg/kg oral, female dogs
[9] = C2E2 100 mg/kg oral, female dogs, 100 mg/kg
[10] = C2E2 100 mg/kg oral, male dogs, 100 mg/kg
[11] = C2E2 300 mg/kg oral, female dogs
[12] = C2E2 300 mg/kg oral, female dogs, 300 mg/kg
[13] = C2E2 300 mg/kg oral, male dogs, 300 mg/kg
[14] = C2E2 500 mg/kg oral, female dogs
[15] = C2E2 500 mg/kg oral, female dogs, 500 mg/kg
[16] = C2E2 500 mg/kg oral, male dogs, 500 mg/kg

CCOC(=O)CN(CCN(CCN(CC(=O)O)CC(=O)OCC)CC(=O)O)CC(=O)O [C2E2, 6,9-bis(carboxymethyl)-3-(2-ethoxy-2-oxoethyl)-11-oxo-12-oxa-3,6,9-triazatetradecan-1-oic acid]
Cage Wash ^241Am (^241Am contaminated rats; [2]): 1.8 ± 0.5%
Feces ^241Am (^241Am contaminated rats; [2]): 5.9 ± 0.8%
Liver burden (^241Am contaminated rats; [2]): 17.7 ± 2.1 % injected
Total Decorporation (^241Am contaminated rats; [2]): 14.4 ± 0.7 % injected
Urine ^241Am (^241Am contaminated rats; [2]): 6.7 ± 1.5%
Cage Wash ^241Am (^241Am contaminated rats; [3]): 1.3 ± 0.5%
Feces ^241Am (^241Am contaminated rats; [3]): 4.7 ± 2.1%
Liver burden (^241Am contaminated rats; [3]): 20.9 ± 3.5 % injected
Total Decorporation (^241Am contaminated rats; [3]): 14.3 ± 3.2 % injected
Urine ^241Am (^241Am contaminated rats; [3]): 8.4 ± 1.3%
Cage Wash ^241Am (^241Am contaminated rats; [4]): 2.2 ± 0.8%
Feces ^241Am (^241Am contaminated rats; [4]): 7.7 ± 2.0%
Liver burden (^241Am contaminated rats; [4]): 18.6 ± 4.5 % injected
Total Decorporation (^241Am contaminated rats; [4]): 22.3 ± 3.1 % injected
Urine ^241Am (^241Am contaminated rats; [4]): 12.4 ± 1.3%
Cage Wash ^241Am (^241Am contaminated rats; [5]): 2.6 ± 0.8%
Feces ^241Am (^241Am contaminated rats; [5]): 7.3 ± 1.5%
Liver burden (^241Am contaminated rats; [5]): 18.9 ± 2.3 % injected
Total Decorporation (^241Am contaminated rats; [5]): 24.2 ± 3.3 % injected
Urine ^241Am (^241Am contaminated rats; [5]): 14.3 ± 2.9%
Cage Wash ^241Am (^241Am contaminated rats; [6]): 3.4 ± 0.3%
Feces ^241Am (^241Am contaminated rats; [6]): 6.9 ± 1.7%
Liver burden (^241Am contaminated rats; [6]): 14.5 ± 1.5 % injected
Total Decorporation (^241Am contaminated rats; [6]): 23.8 ± 3.0 % injected
Urine ^241Am (^241Am contaminated rats; [6]): 13.5 ± 1.7%
Cage Wash ^241Am (^241Am contaminated rats; [7]): 4.5 ± 0.7%
Feces ^241Am (^241Am contaminated rats; [7]): 7.1 ± 1.3%
Liver burden (^241Am contaminated rats; [7]): 13.7 ± 3.1 % injected
Total Decorporation (^241Am contaminated rats; [7]): 31.3 ± 5.5 % injected
Urine ^241Am (^241Am contaminated rats; [7]): 19.8 ± 3.9%
Efficacy compared with intravenous Ca-DTPA (^241Am contaminated rats; C2E2 1000 mg/kg single oral dose vs Ca-DTPA 13.3 mg/kg iv, no equivalence analysis): comparable, in terms of efficacy, to an intravenous dose of Ca-DTPA (13.3 mg/kg)
Effect of fasting on efficacy of the C2E2 dose (^241Am contaminated rats; daily urinary and fecal americium, male and female rats): not altered by fasting rats prior to their C2E2 treatment
Skeletal burden vs untreated controls (statistics) (^241Am contaminated rats; female rats): not significantly changed by C2E2 treatment
Dose with significantly enhanced decorporation vs untreated controls (^241Am contaminated rats; female rats, p<0.001): above 600 mg/kg
^241Am liver burden vs untreated controls (statistics) (^241Am contaminated rats; female rats, p<0.01): Only the reduction in burden following the 1000 mg/kg dose was statistically significant
Wound site retention of americium vs untreated controls (statistics) (^241Am contaminated rats; male and female rats): did not correspond with a significant change in tissue burden compared to untreated controls at any single C2E2 dose
Dose with significant reduction of estimated skeletal americium burden vs untreated controls (^241Am contaminated rats; male rats): ≥ 600 mg/kg
^241Am liver burden vs untreated controls (statistics) (^241Am contaminated rats; male rats): significantly reduced compared to untreated controls at doses of 200 mg/kg (p<0.05) and 1000 mg/kg (p<0.001)
Dose with significantly increased total decorporation vs untreated controls (^241Am contaminated rats; male rats, p<0.001): ≥ 600 mg/kg
Total Recovered Activity, Liver, Treatment Mean ([1]; C2E2 100 mg/kg oral): 168.91 nCi
Total Recovered Activity, Urine, Treatment Mean ([1]; C2E2 100 mg/kg oral): 168.70 nCi
Total Recovered Activity, Liver, Gender Mean [1, 8]: 157.92 nCi
Total Recovered Activity, Urine, Gender Mean [1, 8]: 168.30 nCi
Total Recovered Activity, Liver [1, 9]: 186.4 nCi and 129.4 nCi
Total Recovered Activity, Urine [1, 9]: 193.85 nCi and 142.75 nCi
Total Recovered Activity, Liver, Gender Mean ([1]; C2E2 100 mg/kg oral, male dogs): 179.89 nCi
Total Recovered Activity, Urine, Gender Mean ([1]; C2E2 100 mg/kg oral, male dogs): 169.10 nCi
Total Recovered Activity, Liver [1, 10]: 213.3 nCi and 146.5 nCi
Total Recovered Activity, Urine [1, 10]: 187.57 nCi and 150.63 nCi
Total Recovered Activity, Liver, Treatment Mean ([1]; C2E2 300 mg/kg oral): 132.28 nCi
Total Recovered Activity, Urine, Treatment Mean ([1]; C2E2 300 mg/kg oral): 169.50 nCi
Total Recovered Activity, Liver, Gender Mean [1, 11]: 144.49 nCi
Total Recovered Activity, Urine, Gender Mean [1, 11]: 181.71 nCi
Total Recovered Activity, Liver [1, 12]: 87.6 nCi and 201.4 nCi
Total Recovered Activity, Urine [1, 12]: 121.32 nCi and 242.10 nCi
Total Recovered Activity, Liver, Gender Mean ([1]; C2E2 300 mg/kg oral, male dogs): 120.06 nCi
Total Recovered Activity, Urine, Gender Mean ([1]; C2E2 300 mg/kg oral, male dogs): 157.29 nCi
Total Recovered Activity, Liver [1, 13]: 109.2 nCi and 130.9 nCi
Total Recovered Activity, Urine [1, 13]: 97.24 nCi and 217.34 nCi
Total Recovered Activity, Liver, Treatment Mean ([1]; C2E2 500 mg/kg oral): 45.01 nCi
Total Recovered Activity, Urine, Treatment Mean ([1]; C2E2 500 mg/kg oral): 188.82 nCi
Total Recovered Activity, Liver, Gender Mean [1, 14]: 40.30 nCi
Total Recovered Activity, Urine, Gender Mean [1, 14]: 103.00 nCi
Total Recovered Activity, Liver [1, 15]: 34.3 nCi and 46.3 nCi
Total Recovered Activity, Urine [1, 15]: 65.39 nCi and 140.61 nCi
Total Recovered Activity, Liver, Gender Mean ([1]; C2E2 500 mg/kg oral, male dogs): 49.73 nCi
Total Recovered Activity, Urine, Gender Mean ([1]; C2E2 500 mg/kg oral, male dogs): 274.65 nCi
Total Recovered Activity, Liver [1, 16]: 49.4 nCi and 50.1 nCi
Total Recovered Activity, Urine [1, 16]: 288.78 nCi and 260.53 nCi
